Results: patent US20260001928A1 (CORTERIA PHARMACEUTICALS, priority 2022, published 2026)
*1 amine or outer side, *2 acyl side, *3 side chain or, on linkers, in order; H or OH if unused. Where a SMILES comes first, the peptide text is derived from it. Side-chain parts run from the residue outwards. [ ]: non-standard residue; d: D form. The star is where a group is joined. C20 diacid = O=C(O)CCCCCCCCCCCCCCCCCCC(=O)*; C18 diacid = O=C(O)CCCCCCCCCCCCCCCCC(=O)*; γGlu = O=C(O)[C@H](CCC(=O)[*:2])N[*:1]; C14 diacid = O=C(O)CCCCCCCCCCCCC(=O)*; X1 = O=C(CC1(N[*:1])CCOCC1)[*:2]; AEEA = NCCOCCOCC(=O)O; Aib = CC(C)(N)C(=O)O

Assays:
[1] = In vitro subcutaneous tissue supernatant (SCts) stability and metabolite identification, rat; type: in vitro ADME; set-up: remaining at 2 h: dose or concentration left out as unconfirmed; settings: male, Sprague Dawley; rat subcutaneous tissue supernatant (SCts), 37° C, 2 h
[2] = Chemical stability in buffer (pH 7.4 / pH 4.5), % purity loss; type: physicochemical; settings: 100 mM phosphate buffer pH 7.4; 40° C. vs 5° C.; 14 or 28 days
Outline: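 LC-UV gave % loss after 14 or 28 days of storage at 5 °C or 40 °C. Samples were diluted supernatants from compound incubated 1 h at room temperature at 10 mg/mL target, in 100 mM acetate pH 4.5 or 100 mM phosphate pH 7.4.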

[3] = Pharmacokinetics in male Sprague Dawley rats after subcutaneous administration; type: in vivo; settings: plasma, rat, SC, 0.05 mg/kg
Method: The pharmacokinetics of UCN-2 derivatives was studied in male Sprague Dawley rats after subcutaneous administration (SC) at 0.05, 0.1, 0.3 or 1 mg/kg. Peptides were formulated as a solution in 10 mM phosphate pH 7.4 buffer+glycerol 85% (2.3% v/v)). […] The supernatant (200 μL) was analyzed by LC-MSMS. Pharmacokinetic parameters were calculated using established non-compartmental methods. The area under the plasma concentration curve versus time (AUC) was determined using Watson LIMS (version 7.6), with linear trapezoidal interpolation in the ascending slope and logarithmic trapezoidal interpolation in the descending slope. The portion of the AUC from the last measurable concentration to infinity was estimated from the equation, Ct/kel, where Ct represents the last measurable concentration and kel is the elimination rate constant. The latter was determined from the concentration curve versus time by linear regression at the terminal phase of the semi-logarithmic plot.

Sprague Dawley rats = assay: Effect on systolic blood pressure, telemetry in Sprague Dawley rats; type: in vivo, rat; settings: 0.1 mg/kg SC
Outline: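 Values are % change from a 1 h pre-dose baseline in systolic pressure, tracked by telemetry for up to 48 hours after a single 0.1 mg/kg subcutaneous dose. Rats (Sprague Dawley, n=2 per peptide) carried aortic catheters and recovered at least 10 days post-surgery; duration of action marks the last time point still showing an effect.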

human CRF2a receptor = molecular target: T1, human CRF2a receptor (Homo sapiens, UniProt Q13324); assay: Activity at human CRF2a receptor, cAMP functional assay in TeloHEAC cells; type: cell-based; settings: TeloHEAC cells stably expressing human CRF2a receptor, relative to urocortin 2 (100 nM = 100%)
T1 construct: expressed in transfected cells; host or cells: TeloHEAC cells
T1 sequence (Q13324 1-411): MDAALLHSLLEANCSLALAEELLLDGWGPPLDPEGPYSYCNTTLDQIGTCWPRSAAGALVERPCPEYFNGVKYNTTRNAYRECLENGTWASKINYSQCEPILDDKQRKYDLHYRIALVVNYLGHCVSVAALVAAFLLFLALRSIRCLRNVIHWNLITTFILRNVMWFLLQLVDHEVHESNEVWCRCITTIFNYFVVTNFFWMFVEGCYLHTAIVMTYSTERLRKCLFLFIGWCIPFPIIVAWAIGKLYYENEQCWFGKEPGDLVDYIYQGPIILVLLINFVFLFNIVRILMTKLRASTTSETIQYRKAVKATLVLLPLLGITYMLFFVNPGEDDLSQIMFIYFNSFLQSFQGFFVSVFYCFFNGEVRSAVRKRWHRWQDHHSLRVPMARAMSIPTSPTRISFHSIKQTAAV
Outline: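 TeloHEAC cells stably expressing human CRF2a (10000 cells/well) were treated with 16-point 1:2 compound dilutions in HBSS/20 mM HEPES with IBMX for 30 min at 37° C. cAMP was read by HTRF (665/620 nm ratio). EC50 was the concentration giving 50% activation, with 100 nM urocortin 2 set as 100%.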

CFR1R receptor = molecular target: T2, CFR1R receptor (Homo sapiens, UniProt P34998); assay: Activity at anti-target CFR1R receptor, cAMP assay in CRF1R-overexpression CHO-K1 cells; type: cell-based; settings: 100% = Sauvagine at 100 nM; for EC50: cAMP
T2 construct: host or cells: CHO-K1 (clone 2)
T2 sequence (P34998 24-415): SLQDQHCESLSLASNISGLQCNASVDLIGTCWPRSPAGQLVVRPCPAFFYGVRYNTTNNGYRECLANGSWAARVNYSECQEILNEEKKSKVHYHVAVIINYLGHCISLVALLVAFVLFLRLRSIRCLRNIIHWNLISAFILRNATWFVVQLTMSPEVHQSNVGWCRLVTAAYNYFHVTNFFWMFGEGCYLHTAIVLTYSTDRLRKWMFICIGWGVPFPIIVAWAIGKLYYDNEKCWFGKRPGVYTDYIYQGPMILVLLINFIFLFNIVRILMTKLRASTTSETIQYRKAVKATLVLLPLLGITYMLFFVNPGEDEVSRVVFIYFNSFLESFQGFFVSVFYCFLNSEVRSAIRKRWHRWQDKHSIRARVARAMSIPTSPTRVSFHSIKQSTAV
Outline: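 Grow clone 2 to near confluence at 37° C. under 5% CO2 in F12 (Hams) with 10% FBS and G418, harvest, and freeze in 10% DMSO. Thaw and plate at 4000 cells/well. Then proceed per the TeloHAEC method, normalising to Sauvagine 100 nM as maximum.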

[4] = Pharmacokinetics in male Sprague Dawley rats after subcutaneous administration; type: in vivo; settings: plasma, rat, IV, 0.05 mg/kg

remaining at 2 h [1] [%]	Buffer stability pH 7.4 % purity loss [2]	AUC(0-t) [3] [ng·h/mL]	Cmax [3] [ng/mL]	Tmax [3] [h]	half-life [3] [h]	EC50 (human CRF2a receptor) [nM]	Emax (% I) (CFR1R receptor)	EC50 (CFR1R receptor) [nM]	AUC(0-t) [4] [ng·h/mL]	half-life [4] [h]	SMILES	Systolic blood pressure (Mean) % change from baseline, 8 h (Sprague Dawley rats; 8 h, n=2) [%]	Systolic blood pressure (Mean) % change from baseline, 12 h (Sprague Dawley rats; 12 h, n=2) [%]	Systolic blood pressure (Mean) % change from baseline, 24 h (Sprague Dawley rats; 24 h, n=2) [%]	Duration of action (Sprague Dawley rats; last time point with an effect on BP still observed) [h]
82	0.0/Not Tested %	221	64	0.75	1.4	–	–	–	–	–	CC[C@H](C)[C@H](NC(C)=O)C(=O)N[C@H](C(=O)N[C@@H](CC(C)C)C(=O)N[C@@H](CO)C(=O)N[C@@H](CC(C)C)C(=O)N[C@@H](CC(=O)O)C(=O)N[C@@H](C(=O)N1CCC[C@H]1C(=O)N[C@H](C(=O)N[C@@H](CCCCN)C(=O)N[C@@H](CC(C)C)C(=O)N[C@@H](CCCCNC(=O)CC[C@H](NC(=O)CCCCCCCCCCCCC(=O)O)C(=O)O)C(=O)N[C@@H](CCCCN)C(=O)N[C@H](C(=O)N[C@@H](CC(C)C)C(=O)N[C@@H](CC(C)C)C(=O)N[C@@H](CCC(=O)O)C(=O)N[C@@H](CCC(N)=O)C(=O)N[C@@H](CCC(=O)O)C(=O)N[C@@H](CCCCN)C(=O)N[C@@H](CCC(N)=O)C(=O)N[C@@H](CCCCN)C(=O)N[C@@H](CCCCN)C(=O)N[C@@H](CCC(N)=O)C(=O)N[C@@H](CCCNC(=N)N)C(=O)N[C@@H](CCC(=O)O)C(=O)N[C@@H](CCC(N)=O)C(=O)N[C@@H](C)C(=O)N[C@@H](CCC(=O)O)C(=O)N[C@H](C(=O)N[C@@H](CC(N)=O)C(=O)NC(C)(C)C(=O)N[C@@H](CCC(N)=O)C(=O)N[C@H](C(=O)N[C@@H](CC(C)C)C(=O)N[C@@H](C)C(=O)N[C@@H](CCC(N)=O)C(=O)N[C@H](C(N)=O)C(C)C)[C@@H](C)CC)[C@@H](C)O)[C@@H](C)CC)[C@@H](C)CC)C(C)C)C(C)C [compound 82] (Ac-IVLSLD[dV]PIKLK([γGlu-C14 diacid])KILLEQEKQKKQREQAETN[Aib]QILAQV-NH2)	−33	−4	11	14
83	0/Not Tested %	1620	111	6	10.2	0.16	11	> 250	–	–	CC[C@H](C)[C@H](NC(C)=O)C(=O)N[C@H](C(=O)N[C@@H](CC(C)C)C(=O)N[C@@H](CO)C(=O)N[C@@H](CC(C)C)C(=O)N[C@@H](CC(=O)O)C(=O)N[C@@H](C(=O)N1CCC[C@H]1C(=O)N[C@H](C(=O)N[C@@H](CCCCN)C(=O)N[C@@H](CC(C)C)C(=O)N[C@@H](CCCCNC(=O)CC[C@H](NC(=O)CCCCCCCCCCCCCCCCC(=O)O)C(=O)O)C(=O)N[C@@H](CCCCN)C(=O)N[C@H](C(=O)N[C@@H](CC(C)C)C(=O)N[C@@H](CC(C)C)C(=O)N[C@@H](CCC(=O)O)C(=O)N[C@@H](CCC(N)=O)C(=O)N[C@@H](CCC(=O)O)C(=O)N[C@@H](CCCCN)C(=O)N[C@@H](CCC(N)=O)C(=O)N[C@@H](CCCCN)C(=O)N[C@@H](CCCCN)C(=O)N[C@@H](CCC(N)=O)C(=O)N[C@@H](CCCNC(=N)N)C(=O)N[C@@H](CCC(=O)O)C(=O)N[C@@H](CCC(N)=O)C(=O)N[C@@H](C)C(=O)N[C@@H](CCC(=O)O)C(=O)N[C@H](C(=O)N[C@@H](CC(N)=O)C(=O)NC1(CC(=O)N[C@@H](CCC(N)=O)C(=O)N[C@H](C(=O)N[C@@H](CC(C)C)C(=O)N[C@@H](C)C(=O)N[C@@H](CCC(N)=O)C(=O)N[C@H](C(N)=O)C(C)C)[C@@H](C)CC)CCOCC1)[C@@H](C)O)[C@@H](C)CC)[C@@H](C)CC)C(C)C)C(C)C [compound 199] (Ac-IVLSLD[dV]PIKLK([γGlu-C18 diacid])KILLEQEKQKKQREQAETN[X1]QILAQV-NH2)	–	–	–	–
75	3.8/Not Tested %	–	–	–	–	0.54	7	> 250	8250	15	CC[C@H](C)[C@H](NC(C)=O)C(=O)N[C@H](C(=O)N[C@@H](CC(C)C)C(=O)N[C@@H](CO)C(=O)N[C@@H](CC(C)C)C(=O)N[C@@H](CC(=O)O)C(=O)N[C@@H](C(=O)N1CCC[C@H]1C(=O)N[C@H](C(=O)N[C@@H](CCCCN)C(=O)N[C@@H](CC(C)C)C(=O)N[C@@H](CCCCNC(=O)COCCOCCNC(=O)COCCOCCNC(=O)CC[C@H](NC(=O)CCCCCCCCCCCCCCCCCCC(=O)O)C(=O)O)C(=O)N[C@@H](CCCCN)C(=O)N[C@H](C(=O)N[C@@H](CC(C)C)C(=O)N[C@@H](CC(C)C)C(=O)N[C@@H](CCC(=O)O)C(=O)N[C@@H](CCC(N)=O)C(=O)N[C@@H](CCC(=O)O)C(=O)N[C@@H](CCCCN)C(=O)N[C@@H](CCC(N)=O)C(=O)N[C@@H](CCCCN)C(=O)N[C@@H](CCC(=O)O)C(=O)N[C@@H](CCC(N)=O)C(=O)N[C@@H](CCCNC(=N)N)C(=O)N[C@@H](CCC(=O)O)C(=O)N[C@@H](CCC(N)=O)C(=O)N[C@@H](C)C(=O)N[C@@H](CCC(=O)O)C(=O)N[C@H](C(=O)N[C@@H](CC(N)=O)C(=O)NC(C)(C)C(=O)N[C@@H](CCC(N)=O)C(=O)N[C@H](C(=O)N[C@@H](CC(C)C)C(=O)N[C@@H](C)C(=O)N[C@@H](CCC(N)=O)C(=O)N[C@H](C(N)=O)C(C)C)[C@@H](C)CC)[C@@H](C)O)[C@@H](C)CC)[C@@H](C)CC)C(C)C)C(C)C [compound 236] (Ac-IVLSLD[dV]PIKLK([AEEA-AEEA-γGlu-C20 diacid])KILLEQEKQKEQREQAETN[Aib]QILAQV-NH2)	–	–	–	–
68	2.0/Not Tested %	–	–	–	–	0.56	7	> 250	6210	15	CC[C@H](C)[C@H](NC(C)=O)C(=O)N[C@H](C(=O)N[C@@H](CC(C)C)C(=O)N[C@@H](CO)C(=O)N[C@@H](CC(C)C)C(=O)N[C@@H](CC(=O)O)C(=O)N[C@@H](C(=O)N1CCC[C@H]1C(=O)N[C@H](C(=O)N[C@@H](CCCCN)C(=O)N[C@@H](CC(C)C)C(=O)N[C@@H](CCCCNC(=O)CC[C@H](NC(=O)CC[C@H](NC(=O)CCCCCCCCCCCCCCCCCCC(=O)O)C(=O)O)C(=O)O)C(=O)N[C@@H](CCCCN)C(=O)N[C@H](C(=O)N[C@@H](CC(C)C)C(=O)N[C@@H](CC(C)C)C(=O)N[C@@H](CCC(=O)O)C(=O)N[C@@H](CCC(N)=O)C(=O)N[C@@H](CCC(=O)O)C(=O)N[C@@H](CCCCN)C(=O)N[C@@H](CCC(N)=O)C(=O)N[C@@H](CCCCN)C(=O)N[C@@H](CCC(=O)O)C(=O)N[C@@H](CCC(N)=O)C(=O)N[C@@H](CCCNC(=N)N)C(=O)N[C@@H](CCC(=O)O)C(=O)N[C@@H](CCC(N)=O)C(=O)N[C@@H](C)C(=O)N[C@@H](CCC(=O)O)C(=O)N[C@H](C(=O)N[C@@H](CC(N)=O)C(=O)NC(C)(C)C(=O)N[C@@H](CCC(N)=O)C(=O)N[C@H](C(=O)N[C@@H](CC(C)C)C(=O)N[C@@H](C)C(=O)N[C@@H](CCC(N)=O)C(=O)N[C@H](C(N)=O)C(C)C)[C@@H](C)CC)[C@@H](C)O)[C@@H](C)CC)[C@@H](C)CC)C(C)C)C(C)C [compound 241] (Ac-IVLSLD[dV]PIKLK([γGlu-γGlu-C20 diacid])KILLEQEKQKEQREQAETN[Aib]QILAQV-NH2)	–	–	–	–
